Measured values reported in patent US20120214173A1, “Methods of Identifying Modulators of an Ehd Polypeptide” (priority 2007, published 2012).
Where “and” joins values, the source holds several entries; their conditions need not be identical. Equal values may be shown once. Ends that are not written are not given here.

Legend:
EHD2 [1] = target: T1, EHD2 (Mus musculus, UniProt Q8BH64); assay: ITC nucleotide binding to EHD2; conditions: ITC at 10° C.
T1 construct: Mouse EHD2 full-length protein and all mutants were expressed as N-terminal His-fusions followed by a PreScission cleavage site; His (N, cleaved yes); made in house; host or cells: Escherichia coli BL21 DE3 Rosetta
T1 sequence (Q8BH64 1-543): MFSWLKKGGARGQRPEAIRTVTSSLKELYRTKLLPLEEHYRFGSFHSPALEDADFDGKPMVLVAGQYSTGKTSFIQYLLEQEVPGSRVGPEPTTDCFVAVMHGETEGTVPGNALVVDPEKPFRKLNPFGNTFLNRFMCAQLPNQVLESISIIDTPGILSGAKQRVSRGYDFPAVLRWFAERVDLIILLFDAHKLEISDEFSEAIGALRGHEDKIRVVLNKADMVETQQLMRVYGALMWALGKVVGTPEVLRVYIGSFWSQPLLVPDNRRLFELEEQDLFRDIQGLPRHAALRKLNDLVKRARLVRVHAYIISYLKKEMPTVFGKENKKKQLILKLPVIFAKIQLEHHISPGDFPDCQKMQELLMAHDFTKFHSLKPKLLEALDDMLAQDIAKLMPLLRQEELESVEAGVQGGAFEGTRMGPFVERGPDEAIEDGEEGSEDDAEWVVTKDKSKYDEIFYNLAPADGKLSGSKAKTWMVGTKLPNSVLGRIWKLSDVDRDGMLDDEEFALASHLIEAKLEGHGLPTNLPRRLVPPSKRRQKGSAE
Procedure: (§1) Amino acid numbering corresponds to mouse EHD2. b, EHD2 binds to adenine nucleotides, as determined by ITC. For clarity, ΔΔH=ΔHn−ΔH1 is plotted. […] Images were acquired close to the basal cell surface. f, Nucleotide hydrolysis was measured by HPLC in the absence (empty symbols) or presence of Folch liposomes (filled symbols). Data represent mean and standard deviation for two (intrinisic reactions) or three (stimulated reactions) independent experiments.
(§2) ITC measurements were performed at 10° C. in 20 mM HEPES (pH 7.5), 300 mM NaCl, 2 mM MgCl2. Liposome binding assays were performed as described previously (www.endocytosis.org). Multiple turnover ATPase assays were performed in 20 mM HEPES (pH 7.5), 135 mM NaCl, 15 mM KCl, 1 mM MgCl2 at 30° C. with 10 μM EHD2 (or mutants) as enzyme and 100 μM ATP as substrate, in the absence or presence of 1 mg/ml Folch liposomes (Sigma-Aldrich).
Mouse full-length EHD2 was expressed in bacteria and purified to homogeneity (FIG. 5). The purified protein was nucleotide-free as judged by HPLC analysis. […] It was previously reported that EHDs—despite having a predicted G-domain—bind to adenine nucleotides^15. […] We still refer to this domain as a G-domain because the sequence and fold (see below) are clearly similar to other G-domains. […] Using synthetic liposomes containing various different phosphatidyl-inositols (PI) (FIG. 1c) we observed best binding to liposomes containing PI(4,5)bisphosphate (PIP2).

EH-domain of EHD2 = target: T2, EH-domain of EHD2 (Mus musculus, UniProt Q8BH64); assay: ITC peptide binding to the EH-domain of EHD2; conditions: ITC at 10° C.; for affinity of xPF peptide to the EH-domain of EHD2 by ITC: 100 mM HEPES (pH 7.5), 50 mM NaCl, 200 μM CaCl2
T2 sequence (Q8BH64 449-537 limits assumed): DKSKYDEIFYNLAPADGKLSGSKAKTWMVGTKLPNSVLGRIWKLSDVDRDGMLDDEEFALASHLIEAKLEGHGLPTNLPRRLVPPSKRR
Excerpt: EH-domains are low affinity protein-protein interactors normally found in endocytic multi-subunit assemblies. A likely purpose of the EH-domain is in recruitment of the protein to sites of action. […] An alternative explanation for the function of the EH-domain in the oligomer can be proposed based on the presence of two conserved PF motifs (NPF and IPF) in a disordered surface loop at the side of the G-domain between β-sheet 2A and 2B. In our proposed oligomer, the EH-domains from one dimer are close to the side-site NPF motif of the adjacent dimer (FIG. 4c) and thus after oligomerisation on membranes they may switch position from the top site position in the dimer to the side site in the opposing dimer. […] A dominant negative mutant in C. elegans Rme1 is found in the linker between the EH-domain and the helical domain^3 pointing to the importance of this flexible linker.

EHD2 [2] = target: T1, EHD2; assay: Multiple turnover ATPase assay (nucleotide hydrolysis by HPLC) with or without Folch liposomes; format: biochemical
Procedure: as §1, §2
Reactions were started by the addition of the protein to the final reaction mix and nucleotide hydrolysis was followed using standard HPLC measurement^27. Initial rates were determined by applying a linear fit to data points up to 40% nucleotide hydrolysis. For electron microscopic studies, 2.5 μM EHD2 in 20 mM HEPES (pH 7.5), 150 mM NaCl, 1 mM MgCl2 was incubated for 15 min at 25° C. in the presence of 1 mM nucleotide and 0.05 mg/ml (final concentration) of the indicated liposomes. Samples were spotted on carbon-coated copper grids (Canemco and Marivac) and negatively stained with 2% uranyl acetate.
We next monitored the effect of membrane-binding on the ATPase activity of. EHD2 under multiple-turnover conditions (10-fold excess of ATP over EHD2), in the presence and absence of Folch liposoines (FIG. 1f). The intrinsic/background ATPase activity is extremely slow (kobs=0.7 h^−1) but is stimulated 8-fold in the presence of Folch or PS liposomes (kobs=5.6 h^−1).

## Nc1ncnc2c1ncn2[C@@H]1O[C@H](COP(=O)(O)OP(=O)(O)O)[C@@H](O)[C@H]1O [ADP]
EHD2 [1]
  n (fitted ITC value), nucleotide binding to EHD2: 0.9
EHD2 [1]; 20 mM HEPES (pH 7.5), 300 mM NaCl, 2 mM MgCl2, read-out: affinity to EHD2 determined by ITC
  Kd: 50 µM and ~50 µM

## PEKPFRKL [peptide from EHD2 containing KPF motif]
EH-domain of EHD2
  affinity of xPF peptide to the EH-domain of EHD2 by ITC: did not (show detectable binding

## RMGPFVER [peptide from EHD2 linker containing GPF motif]
EH-domain of EHD2
  affinity of xPF peptide to the EH-domain of EHD2 by ITC: did not (show detectable binding
EH-domain of EHD2; listed as top site GPF peptide
  affinity of xPF peptide to the EH-domain of EHD2 by ITC: not the top site GPF peptide, bound with a measurable affinity

## Nc1nc2c(ncn2[C@@H]2O[C@H](COP(=O)(O)OP(=O)(O)OP(O)(O)=S)[C@@H](O)[C@H]2O)c(=O)[nH]1 [GTP-γ-S]
EHD2 [1]; 20 mM HEPES (pH 7.5), 300 mM NaCl, 2 mM MgCl2
  affinity to EHD2 determined by ITC: No binding signal was observed

## KLNPFGNT [KLNPFGNT]
EH-domain of EHD2
  n (fitted ITC value), peptide binding to EH-domain: 1.33

B1: EHD2 R167E (protein)
chain: MFSWLKKGGARGQRPEAIRTVTSSLKELYRTKLLPLEEHYRFGSFHSPALEDADFDGKPMVLVAGQYSTGKTSFIQYLLEQEVPGSRVGPEPTTDCFVAVMHGETEGTVPGNALVVDPEKPFRKLNPFGNTFLNRFMCAQLPNQVLESISIIDTPGILSGAKQRVSEGYDFPAVLRWFAERVDLIILLFDAHKLEISDEFSEAIGALRGHEDKIRVVLNKADMVETQQLMRVYGALMWALGKVVGTPEVLRVYIGSFWSQPLLVPDNRRLFELEEQDLFRDIQGLPRHAALRKLNDLVKRARLVRVHAYIISYLKKEMPTVFGKENKKKQLILKLPVIFAKIQLEHHISPGDFPDCQKMQELLMAHDFTKFHSLKPKLLEALDDMLAQDIAKLMPLLRQEELESVEAGVQGGAFEGTRMGPFVERGPDEAIEDGEEGSEDDAEWVVTKDKSKYDEIFYNLAPADGKLSGSKAKTWMVGTKLPNSVLGRIWKLSDVDRDGMLDDEEFALASHLIEAKLEGHGLPTNLPRRLVPPSKRRQKGSAE
EHD2 [2]; absence of membranes
  intrinsic/basal ATPase activity (in words): increased basal ATPase activity
EHD2 [2]; presence of Folch liposomes
  membrane-stimulated ATPase activity (in words): not further stimulated by Folch liposomes
Q8BH64
  assembly-stimulated ATP hydrolysis: all mutants showed reduced or completely abolished assembly-stimulated ATP hydrolysis
  nucleotide hydrolysis (basal and Folch-stimulated ATPase): mutant R167E (in Switch II) showed an increased basal ATPase activity which was not further stimulated by Folch liposomes

B2: EHD2 D198R (protein)
chain: MFSWLKKGGARGQRPEAIRTVTSSLKELYRTKLLPLEEHYRFGSFHSPALEDADFDGKPMVLVAGQYSTGKTSFIQYLLEQEVPGSRVGPEPTTDCFVAVMHGETEGTVPGNALVVDPEKPFRKLNPFGNTFLNRFMCAQLPNQVLESISIIDTPGILSGAKQRVSRGYDFPAVLRWFAERVDLIILLFDAHKLEISREFSEAIGALRGHEDKIRVVLNKADMVETQQLMRVYGALMWALGKVVGTPEVLRVYIGSFWSQPLLVPDNRRLFELEEQDLFRDIQGLPRHAALRKLNDLVKRARLVRVHAYIISYLKKEMPTVFGKENKKKQLILKLPVIFAKIQLEHHISPGDFPDCQKMQELLMAHDFTKFHSLKPKLLEALDDMLAQDIAKLMPLLRQEELESVEAGVQGGAFEGTRMGPFVERGPDEAIEDGEEGSEDDAEWVVTKDKSKYDEIFYNLAPADGKLSGSKAKTWMVGTKLPNSVLGRIWKLSDVDRDGMLDDEEFALASHLIEAKLEGHGLPTNLPRRLVPPSKRRQKGSAE
Q8BH64
  assembly-stimulated ATP hydrolysis: all mutants showed reduced or completely abolished assembly-stimulated ATP hydrolysis
